Data as given in US20260283950A1, “TRI-AZOLE ANTIFUNGAL COMPOSITIONS” (priority 2023, published 2026).

What was measured:
[1] = Preparation of solutions in semifluorinated alkanes, appearance of the composition; assay type: physicochemical
Experimental: 14 mg efinaconazole (purity >99%) is weighed in a 5-ml glass vial; 2 ml F6H8 (Novaliq, purity >99%) is added into the vial by using a pipette, closed with aluminium crimp cap and shaken for 4 hours at 280 mpm, at RT.
20 mg efinaconazole (purity >99%) is weighed in a 5-ml glass vial; the needed volume of the cosolvent is added into the vial by using a pipette; the vial is shaken by hand gentle; the needed volume of F6H8 (Novaliq, purity >99%) is added by using a pipette, closed with aluminium crimp cap and shaken for 4 hours at 280 mpm, at RT.
Following the procedure described in the Examples 1 and 2, the following compositions were prepared (Table 1):
20 mg terbinafine (free base; purity >98%) is weighed in a 5-ml glass vial; 2 ml F6H8 (Novaliq, purity >99%) is added into the vial by using a pipette, closed with aluminium crimp cap and shaken overnight at 280 mpm, at RT.
Following the aforementioned procedure the following compositions were prepared (Table 6): […]

T. interdigitale = experiment: In vitro nail penetration/inhibition model (Bovine Hoof Sheets soaked in product, zone of inhibition); assay type: cell-based; conditions: BHS soaked 24 hours in product, incubation at 28° C. 5 days
Experimental: Three test products containing 0.1% to 10% efinaconazole were tested in vitro for their capabilities to inhibit growth of a representative dermatophyte (T. interdigitale) that is known to cause onychomycosis and tinea pedis in humans: • (a) 0.1% efinaconazole, dissolved in a mixture of F6H8 and 2-propanol (10:1 v/v %), non-aqueous (8-9), • (b) 1.0% efinaconazole, dissolved in a mixture of F6H8 and 2-propanol (9:1 v/v %), non-aqueous (4-7), • (c) 10% efinaconazole, aqueous commercial product (“Jublia”; Bausch Health, Bridgewater, USA) (10-11). As reference products, DMSO was utilized as negative control (1), terbinafine (100 μg/ml in DMSO) as positive control (2) and F6H8 as vehicle control (3). […] Bovine Hoof Sheets (BHS; 400 μm thickness, 16 mm diameter), an established in vitro surrogate for human nails in transungual permeation studies, were soaked in excess in the three test products and the three reference products for 24 hours. Afterwards the BHS were taken from the soaking baths and remaining residues of the test and reference products were thoroughly removed. Then, BHS were transferred and placed onto freshly plated T. interdigitale culture plates. […] Experimental details and results are depicted in Table 2 below: […]

## C=C1CCN([C@H](C)[C@](O)(Cn2cncn2)c2ccc(F)cc2F)CC1 [Efinaconazole, efinaconazole]
[1]; 7 mg/mL efinaconazole in F6H8, no cosolvent
  Appearance: clear solution
[1]; 10 mg/mL efinaconazole, F6H8 (90 vol %), 2-propanol (10 vol %)
  Appearance: clear solution
[1]; 15 mg/mL efinaconazole, F4H5 (90 vol %), 2-propanol (10 vol %)
  Appearance: clear solution
[1]; 15 mg/mL efinaconazole, F4H10 (90 vol %), 2-propanol (10 vol %)
  Appearance: clear solution
[1]; 15 mg/mL efinaconazole, F6H8 (85 vol %), 2-propanol (10 vol %), 1-Methyl-2-pyrrolidon (5 vol %)
  Appearance: clear solution
[1]; 15 mg/mL efinaconazole, F6H8 (85 vol %), 2-propanol (10 vol %), Ethyl acetate (5 vol %)
  Appearance: clear solution
[1]; 15 mg/mL efinaconazole, F6H8 (85 vol %), 2-propanol (10 vol %), N,N-Dimethyl acetamide (5 vol %)
  Appearance: clear solution
[1]; 15 mg/mL efinaconazole, F6H8 (85 vol %), 2-propanol (10 vol %), N,N-Dimethyl formamide (5 vol %)
  Appearance: clear solution
[1]; 25 mg/mL efinaconazole, F6H8 (75 vol %), 2-propanol (25 vol %)
  Appearance: clear solution

## CN(C/C=C/C#CC(C)(C)C)Cc1cccc2ccccc12 [terbinafine]
[1]; 1 mg/mL terbinafine in F4H5, no cosolvent
  Appearance: clear solution
[1]; 1 mg/mL terbinafine in F6H8, no cosolvent
  Appearance: clear solution
[1]; 5 mg/mL terbinafine in F4H5, no cosolvent
  Appearance: clear solution
[1]; 5 mg/mL terbinafine in F6H8, no cosolvent
  Appearance: clear solution
[1]; 10 mg/mL terbinafine in F6H8, no cosolvent
  Appearance: clear solution
[1]; 10 mg/mL terbinafine, F4H5, ethanol (10 vol %)
  Appearance: clear solution
[1]; 10 mg/ml terbinafine, F6H8 (90 vol %), 2-propanol (10 vol %)
  Appearance: clear solution
[1]; 15 mg/mL terbinafine in F6H8, no cosolvent
  Appearance: clear solution
[1]; 20 mg/mL terbinafine, F6H8 (90 vol %), ethanol (10 vol %)
  Appearance: clear solution
[1]; 20 mg/ml terbinafine, F6H8 (90 vol %), 2-propanol (10 vol %)
  Appearance: clear solution
T. interdigitale
  Results (inhibition zone, in words): nearly complete inhibition
T. interdigitale; Trichophyton interdigitale, 120 h, read-out: zones of inhibition
  zone of inhibition at 100 µg/mL: 56 to 58 mm
